Laboratory results reported in patent publication US20130189775A1, “MODULATION OF THE […] RECEPTOR mTOR TO INHIBIT STEM CELL DIFFERENTIATION INTO NEURONS” (priority 2011, published 2013).
pEC50, pKd: −log10 of the molar value. Entries after “also recorded” stand apart in the source; their conditions may differ.

Tests used:
ReN cells [1] = assay: ReN cell neural progenitor differentiation, phase contrast microscopy; format: cell-based, human; conditions: for block of neural progenitor differentiation by PI3-K / Akt inhibitors: ReN cells differentiated in presence of inhibitor for 6-7 days (FIG. 3, FIG. 4)
Procedure: To evaluate the role of kinases in the differentiation of neural stem cells, we added kinase inhibitors from the BIOMOL kinase inhibitor library to the culture during the differentiation process. Kinase inhibitors were replaced on alternate days during media change. Cultures were grown for 6-7 days. We used phase contrast imaging and immunocytochemistry to understand the difference in the morphological differentiation.
General procedure for neuronal stem cell culture on laminin surface: • 96 well CellBind™ treated plates were washed with 70% ethanol and kept ON in the hood • Next day morning, plates were washed twice with 1×PBS • Laminin (50 μl, 20 μg/ml) was added to the wells and incubated 37° C. incubator for 5 hrs. • Wells were washed with 1×PBS after incubation. • Cells were seeded at 20,000 cells/well • For undifferentiated cells, the cultures were grown for 9 days. Media was changed everyday with growth factor supplementation • For differentiated cells, the growth factor deprived media was added after next day after seeding and cells were grown further for 6 days with media changes every other day. • Rapamycin and other inhibitors were added to the cells when the media was changed to growth factor independent media. Media was maintained throughout the study and changed on alternate days. ReNcell NSC Maintenance Medium contains DMEM/F12 w/o HEPES, w/L-Glutamine, human serum albumin, human transferrin, putrescine dihydrochloride, human recombinant insulin, L-thyroxine, Tri-iodo-thyronine, progesterone, sodium selenite, heparin, corticosterone. […] The growth factors used were EGF (Epidermal growth factor) and bFGF (Basic fibroblast growth factor).
Kinase inhibitors (1 μM) was added to the cells next day after seeding and replenished during media changes on alternate days. Phase contrast microscopy was done after 6 days as described below. […]
After the experiment, the cells were fixed with 4% paraformaldehyde and washed thrice with 1×PBS. Cells were assessed using a Ziess Axiovert 200M inverted Brightfield/fluorescence microscope.

[2] = test system: quiescent human epidermoid carcinoma A431; assay: EGF-induced DMR response of quiescent A431 cells (optical biosensor); format: cell-based
Excerpt: The DMR signal mediated through a particular target is an integrated and quantifiable signal that is a sum of contributions from mass redistribution occurring at different distances away from the sensor surface. Because of the complex nature of cell signaling, the activation of distinct cell signaling mediated through different targets might result in similar overall DMR signal. However, because of the participation of unique sets of cellular targets for a specific signaling event, the modulation profiles mediated by a predetermined set of selective modulators might provide a means to classify the specificity of cell signaling being activated by a particular stimulus. Therefore, the DMR response can be treated as a unique and perfect readout for systems biology studies of living cells. […] The effect of various known inhibitors/drugs on the DMR response of quiescent A431 cells linked the cell response to mainly the Ras/mitogen-activated protein (MAP) kinase pathway, which primarily proceeds through MEK.
Another biosensor output parameter can be the kinetics of any of the aspects of data output. For example, the rate at the completion of the phase transitions. For example, how fast are the phase transitions completed or how long does it take to complete data output. Another example of the kinetics that can be measured would be the length of time for which an overall phase of the data output takes. Another example is the total duration of time of one or both of the P- and N-DMR phases. Another example is the rate or time in which it takes to acquire the total amplitudes of one or both of the P- and N-DMR phases. Another example can be the transition time τ from the P- to N-DMR phase. The kinetics of both P-DMR and N-DMR events or phases can also be measured. For example, stimulation of human quiescent human epidermoid carcinoma A431 with epidermal growth factor (EGF) results in a dynamic response consisting of at least three phases. […]

ReN cells [3] = assay: Epic label-free RWG biosensor receptor assay on ReN cells; format: cell-based, human; conditions: Epic single step assay; for agonist response profile, undifferentiated versus differentiated cells: ReN cells (FIG. 6); for agonist response of differentiated cells: ReN cells differentiated without rapamycin (FIG. 6)
Procedure: The label-free biosensor assays for various receptors was done in the presence of various concentrations of a typical agonist using Corning Epic® system. Assay on undifferentiated cells was carried out simultaneously. […] Undifferentiated receptor profiles were similar to rapamycin treated cells indicating the blockage of differentiation by rapamycin.
ReN Cells were treated with or without rapamycin (5 μM) for 6 days. Cells were washed with HBSS and loaded onto Epic instrument for a single step assay with various receptor agonists. Undifferentiated cells grown for 3-4 days (till confluency) and run of Epic instrument as described above.

Compound: O=c1[nH]c2ccccc2n1C1CCN(Cc2ccc(-c3[nH]c4cc5ncnc5cc4nc3-c3ccccc3)cc2)CC1 [A6730]
- block of neural progenitor differentiation by PI3-K / Akt inhibitors (ReN cells [1]): did not block the neural progenitor differentiation

Compound: COc1cc2ncnc(Nc3cccc(Cl)c3)c2cc1OC [AG1478]
- suppression of EGF-induced DMR response [2]: fully suppressed

Compound: Nc1ncnc2c1ncn2[C@@H]1O[C@H](CO)[C@@H](O)[C@H]1O [Adenosine]
- agonist response profile, undifferentiated versus differentiated cells (ReN cells [3]): different profiles

Compound: O=C(O)c1ccc2nc(-c3ccccc3)c(-c3ccccc3)nc2c1 [BML-257]
- block of neural progenitor differentiation by PI3-K / Akt inhibitors (ReN cells [1]): did not block the neural progenitor differentiation

Compound: NCCCC(=O)O [GABA]
- agonist response of differentiated cells (ReN cells [3]): did not responds to these stimuli

Compound: C[C@@H](N)[C@H]1CC[C@H](C(=O)Nc2ccncc2)CC1 [Y27632]
- block of neural progenitor cell differentiation by ROCK inhibitor (ReN cells [1]; Y27632 1 μM, 6-7 days (FIG. 5)): had no effect on the differentiation process; also recorded: did not block neural progenitor cell differentiation

Compound: NCCc1ccc(O)c(O)c1 [dopamine]
- agonist response profile, undifferentiated versus differentiated cells (ReN cells [3]): different profiles

Compound: CNC[C@H](O)c1ccc(O)c(O)c1 [epinephrine]
- agonist response profile, undifferentiated versus differentiated cells (ReN cells [3]): different profiles

Compound: NCCc1c[nH]c2ccc(O)cc12 [serotonin]
- agonist response of differentiated cells (ReN cells [3]): did not responds to these stimuli

Compound: EGF: epidermal growth factor
- pEC50 ([2]; EGF stimulation, read-out: EC50 from amplitudes of the N-DMR signals): ~8.84
- pKd ([2]; EGF stimulation, read-out: Kd from one-phase decay constant κ of the N-DMR signal): 8.24
